Results published in ChEMBL document CHEMBL1201862, “PubChem BioAssay data set” (2004).
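Protocol summary: plate cells (96-well), add compound at 5 concentrations, incubate 48 h, interpolate endpoints linearly. Abbreviation: GI50, concentration required for 50% inhibition of growth.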 Activity calls are given as the source filed them. Cut-off read from the data, not from the text of the source: active = GI50 up to about 1.1 µM and inactive = higher.

Columns and labels:
Assay in all cases: DTP human tumour cell line panel, 48 h
KM12 = tested on: KM12
SNB-19 = tested on: SNB-19
SW-620 = tested on: SW-620
CCRF-CEM = tested on: CCRF-CEM
MDA-MB-231 = tested on: MDA-MB-231
MDA-N = tested on: MDA-N
OVCAR-4 = tested on: OVCAR-4
SF-295 = tested on: SF-295
RXF 393 = tested on: RXF 393
OVCAR-3 = tested on: OVCAR-3
K562 = tested on: K562
SF-268 = tested on: SF-268
NCI/ADR-RES = tested on: NCI/ADR-RES
HCT-116 = tested on: HCT-116
SK-MEL-2 = tested on: SK-MEL-2
M14 = tested on: M14
PC-3 = tested on: PC-3
T47D = tested on: T47D
BT-549 = tested on: BT-549

| SMILES | GI50 (KM12) | GI50 (SNB-19) | GI50 (SW-620) | GI50 (CCRF-CEM) | GI50 (MDA-MB-231) | GI50 (MDA-N) | GI50 (OVCAR-4) | GI50 (SF-295) | GI50 (RXF 393) | GI50 (OVCAR-3) | GI50 (K562) | GI50 (SF-268) | GI50 (NCI/ADR-RES) | GI50 (HCT-116) | GI50 (SK-MEL-2) | GI50 (M14) | GI50 (PC-3) | GI50 (T47D) | GI50 (BT-549) |
| --- | --- | --- | --- | --- | --- | --- | --- | --- | --- | --- | --- | --- | --- | --- | --- | --- | --- | --- | --- |
| Nc1ccc2nc3ccc(N)cc3[n+](-c3ccccc3)c2c1 | 36 µM (inactive) | 40.4 µM (inactive) | 37.3 µM (inactive) | > 100 µM (inactive) | 63.8 µM (inactive) | 49.8 µM (inactive) | > 100 µM (inactive) | 33.3 µM (inactive) | > 100 µM (inactive) | 6.4 µM (inactive) | 69.3 µM (inactive) | 29 µM (inactive) | 14.9 µM (inactive) | 26.4 µM (inactive) | 34.5 µM (inactive) | 30.2 µM (inactive) | 29.3 µM (inactive) | 7.78 µM (inactive) | 92.7 µM (inactive) |
| NCc1nnn(Cc2ccccc2)c1N | > 100 µM (inactive) | > 100 µM (inactive) | > 100 µM (inactive) | > 100 µM (inactive) | > 100 µM (inactive) | > 100 µM (inactive) | > 100 µM (inactive) | > 100 µM (inactive) | > 100 µM (inactive) | > 100 µM (inactive) | > 100 µM (inactive) | > 100 µM (inactive) | > 100 µM (inactive) | > 100 µM (inactive) | > 100 µM (inactive) | > 100 µM (inactive) | > 100 µM (inactive) | > 100 µM (inactive) | > 100 µM (inactive) |
| CC[C@H]1C=CCC[C@@]2(C[C@@H]3CC[C@@H]4[C@H](C(=O)OCCCCCCCCCCCCCCCC(=O)O)[C@]5(CCC[C@@H](C)O5)NC(=[N+]34)N2)O1 [CRAMBESCIDIN 657] | 0.207 µM (active) | 0.365 µM (active) | 0.189 µM (active) | 0.005 µM (active) | 0.281 µM (active) | 0.189 µM (active) | 0.157 µM (active) | 0.163 µM (active) | 0.216 µM (active) | 0.301 µM (active) | 0.121 µM (active) | 0.367 µM (active) | 4.61 µM (inactive) | 0.169 µM (active) | 0.127 µM (active) | 0.1 µM (active) | 0.1 µM (active) | 0.32 µM (active) | 0.314 µM (active) |
| CC(C)N(C(C)C)S(=O)(=O)CC12CCC(C/C1=N\O)C2 (stereo not given) | > 100 µM (inactive) | > 100 µM (inactive) | > 100 µM (inactive) | > 100 µM (inactive) | > 100 µM (inactive) | > 100 µM (inactive) | > 100 µM (inactive) | > 100 µM (inactive) | > 100 µM (inactive) | > 100 µM (inactive) | > 100 µM (inactive) | > 100 µM (inactive) | > 100 µM (inactive) | > 100 µM (inactive) | > 100 µM (inactive) | > 100 µM (inactive) | > 100 µM (inactive) | > 100 µM (inactive) | > 100 µM (inactive) |
| CSc1ccc2c(c1)c(CCN)c(C)n2Cc1ccccc1Cl | 1.82 µM (inactive) | 1.77 µM (inactive) | 1.78 µM (inactive) | 1.51 µM (inactive) | 1.84 µM (inactive) | 1.64 µM (inactive) | 1.73 µM (inactive) | 1.82 µM (inactive) | 1.4 µM (inactive) | 1.86 µM (inactive) | 1.69 µM (inactive) | 1.76 µM (inactive) | 2.03 µM (inactive) | 1.63 µM (inactive) | 1.8 µM (inactive) | 1.72 µM (inactive) | 1.52 µM (inactive) | 1.57 µM (inactive) | 3.26 µM (inactive) |
| CCCCCCCCCCCCCCCCNc1ccc2c(c1)OCCOCCOCCOCCO2 | 2.06 µM (inactive) | 3.37 µM (inactive) | 3.37 µM (inactive) | 2.19 µM (inactive) | 2.91 µM (inactive) | 3.14 µM (inactive) | 4.02 µM (inactive) | 2.33 µM (inactive) | 2.3 µM (inactive) | 2.71 µM (inactive) | 4.2 µM (inactive) | 3.76 µM (inactive) | 2.37 µM (inactive) | 3.04 µM (inactive) | 2.25 µM (inactive) | 3.79 µM (inactive) | 2.2 µM (inactive) | 3.11 µM (inactive) | 3.44 µM (inactive) |
| CN1CCc2c(sc3nc(Nc4ccccc4)n(N)c(=O)c23)C1 | > 100 µM (inactive) | > 100 µM (inactive) |  | 59.2 µM (inactive) | > 100 µM (inactive) | > 100 µM (inactive) |  | 63.1 µM (inactive) | 63.4 µM (inactive) | > 100 µM (inactive) | 37.1 µM (inactive) | > 100 µM (inactive) | > 100 µM (inactive) | 72.3 µM (inactive) | > 100 µM (inactive) | 24.1 µM (inactive) | > 100 µM (inactive) | > 100 µM (inactive) | > 100 µM (inactive) |
| CCN1C/C(=C\c2ccc(Cl)cc2)c2[nH]c(=O)c(C#N)c(-c3ccc(Cl)cc3)c2C1 | > 100 µM (inactive) | > 100 µM (inactive) | > 100 µM (inactive) | 71.6 µM (inactive) | > 100 µM (inactive) | > 100 µM (inactive) | > 100 µM (inactive) |  | > 100 µM (inactive) | > 100 µM (inactive) | > 100 µM (inactive) | > 100 µM (inactive) | > 100 µM (inactive) | > 100 µM (inactive) | > 100 µM (inactive) | > 100 µM (inactive) | > 100 µM (inactive) | > 100 µM (inactive) | > 100 µM (inactive) |
| Cc1cc2c(c(S(=O)(=O)c3ccccc3[N+](=O)[O-])c1)NCCC2 | 63.8 µM (inactive) | > 100 µM (inactive) | > 100 µM (inactive) |  | > 100 µM (inactive) | 34.8 µM (inactive) | 23.5 µM (inactive) | 55.6 µM (inactive) | > 100 µM (inactive) | 65.2 µM (inactive) |  | 83.6 µM (inactive) | 50 µM (inactive) |  | 51.4 µM (inactive) | 69.8 µM (inactive) | 27.9 µM (inactive) | 6.44 µM (inactive) | 19.1 µM (inactive) |
| N#CC1C=Cc2ccccc2N1C(=O)Oc1ccccc1 (stereo not given) | 37.2 µM (inactive) | 74.8 µM (inactive) | 36.2 µM (inactive) | 19.9 µM (inactive) | 68.2 µM (inactive) | 35.4 µM (inactive) | 40.6 µM (inactive) |  | 66.4 µM (inactive) |  | 32.3 µM (inactive) | 55.1 µM (inactive) | 55.5 µM (inactive) | 38.7 µM (inactive) | 23.1 µM (inactive) | 46.7 µM (inactive) | 52.1 µM (inactive) | 28.2 µM (inactive) | 53.5 µM (inactive) |
| COc1c(O)cc2ccnc3c2c1N(C)C=C3 | > 100 µM (inactive) | > 100 µM (inactive) | 86.1 µM (inactive) |  | > 100 µM (inactive) | > 100 µM (inactive) | > 100 µM (inactive) | 55 µM (inactive) | > 100 µM (inactive) | > 100 µM (inactive) | > 100 µM (inactive) | > 100 µM (inactive) | > 100 µM (inactive) | 67.3 µM (inactive) | > 100 µM (inactive) | > 100 µM (inactive) | > 100 µM (inactive) | > 100 µM (inactive) | > 100 µM (inactive) |
